How the values were obtained:
Test in all cases: relative viability (nuclei count vs DMSO), 5 days (fraction); higher = more cells survive
[1] = compound: C[C@]12O[C@H](C[C@]1(O)CO)n1c3ccccc3c3c4c(c5c6ccccc6n2c5c31)CNC4=O [Lestaurtinib] + CC1(C)CCC(c2ccc(Cl)cc2)=C(CN2CCN(c3ccc(C(=O)NS(=O)(=O)c4ccc(N[C@H](CCN5CCOCC5)CSc5ccccc5)c(S(=O)(=O)C(F)(F)F)c4)cc3)CC2)C1 [Navitoclax] (partner 0.5 µM)
Method in brief: (§1)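 Nuclei were stained with Hoechst during a one-step fixation (final 0.05% Triton X-100, 1% formaldehyde, 1 ug/ml Hoechst) carried out 5 days after dosing, then counted on 4× images. The cells, lung cancer lines in 1536-well plates, had been dosed by pin tool the day after seeding with one drug alone or a fixed anchor-drug dose plus five library-drug doses (not always all listed) in √10 steps. Relative viability is the nuclei count in treated wells divided by that in vehicle wells, and each value is the median of duplicate plates.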

[2] = compound: C[C@]12O[C@H](C[C@]1(O)CO)n1c3ccccc3c3c4c(c5c6ccccc6n2c5c31)CNC4=O [Lestaurtinib] + COc1cc2c(Oc3ccc(NC(=O)C4(C(=O)Nc5ccc(F)cc5)CC4)cc3F)ccnc2cc1OCCCN1CCOCC1 [Foretinib] (partner 0.25 µM)
Method in brief: as §1

[3] = compound: C[C@]12O[C@H](C[C@]1(O)CO)n1c3ccccc3c3c4c(c5c6ccccc6n2c5c31)CNC4=O [Lestaurtinib] + Cc1nc(Nc2ncc(C(=O)Nc3c(C)cccc3Cl)s2)cc(N2CCN(CCO)CC2)n1 [Dasatinib] (partner 0.075 µM)
Method in brief: as §1

[4] = compound: C[C@]12O[C@H](C[C@]1(O)CO)n1c3ccccc3c3c4c(c5c6ccccc6n2c5c31)CNC4=O [Lestaurtinib] + Nc1nc2[nH]cc(CCc3ccc(C(=O)N[C@@H](CCC(=O)O)C(=O)O)cc3)c2c(=O)[nH]1 [Pemetrexed] (partner 0.2 µM)
Method in brief: as §1

Row | Cell Line | relative viability ([1]; first compound 0.005 µM) | relative viability ([1]; first compound 0.01581 µM) | relative viability ([1]; first compound 0.05 µM) | relative viability ([1]; first compound 0.1581 µM) | relative viability ([1]; first compound 0.5 µM) | relative viability ([2]; first compound 0.005 µM) | relative viability ([2]; first compound 0.01581 µM) | relative viability ([2]; first compound 0.05 µM) | relative viability ([2]; first compound 0.1581 µM) | relative viability ([2]; first compound 0.5 µM) | relative viability ([3]; first compound 0.005 µM) | relative viability ([3]; first compound 0.01581 µM) | relative viability ([3]; first compound 0.05 µM) | relative viability ([3]; first compound 0.1581 µM) | relative viability ([3]; first compound 0.5 µM) | relative viability ([4]; first compound 0.005 µM) | relative viability ([4]; first compound 0.01581 µM) | relative viability ([4]; first compound 0.05 µM) | relative viability ([4]; first compound 0.1581 µM) | relative viability ([4]; first compound 0.5 µM)
1 | NCI-H520 | 1.11 | 1.15 | 1.05 | 0.455 | 0.319 | 0.713 | 0.992 | 0.698 | 0.342 | 0.228 | 0.209 | 0.203 | 0.164 | 0.169 | 0.159 | 0.772 | 0.678 | 0.593 | 0.369 | 0.318
2 | NCI-H596 | 0.968 | 0.978 | 0.937 | 1.15 | 0.943 | 0.724 | 0.946 | 0.82 | 1.1 | 0.671 | 0.669 | 0.6 | 0.678 | 0.694 | 0.564 | 0.487 | 0.488 | 0.504 | 0.476 | 0.453
3 | NCI-H647 | 1.08 | 0.945 | 0.572 | 0.465 | 0.116 | 1.41 | 1.15 | 0.705 | 0.478 | 0.16 | 0.278 | 0.147 | 0.0914 | 0.0755 | 0.0624 | 0.187 | 0.162 | 0.183 | 0.119 | 0.064
4 | NCI-H838 | 1.21 | 1.05 | 1 | 0.532 | 0.164 | 1.12 | 1.04 | 0.869 | 0.519 | 0.26 | 0.281 | 0.296 | 0.264 | 0.286 | 0.216 | 0.263 | 0.272 | 0.231 | 0.197 | 0.126
5 | NCI-H1355 | 0.908 | 0.889 | 0.73 | 0.457 | 0.459 | 1.03 | 1.08 | 0.696 | 0.802 | 0.356 | 0.639 | 0.777 | 0.58 | 0.495 | 0.259 | 1.1 | 1.08 | 0.928 | 0.754 | 0.607
6 | NCI-H1395 | 1.38 | 1.28 | 1.06 | 0.912 | 0.413 | 1.01 | 0.911 | 0.861 | 0.824 | 0.479 | 0.423 | 0.402 | 0.398 | 0.373 | 0.363 | 0.788 | 1.03 | 0.559 | 0.775 | 0.379
7 | NCI-H1437 | 1.13 | 1.2 | 1 | 1.02 | 0.689 | 1.35 | 1.4 | 1.29 | 1.17 | 1.07 | 0.442 | 0.475 | 0.331 | 0.382 | 0.265 | 0.274 | 0.305 | 0.293 | 0.23 | 0.238
8 | NCI-H1650 | 1.24 | 1.37 | 1.31 | 1.56 | 0.503 | 1.03 | 1.24 | 1.37 | 1.26 | 0.694 | 0.263 | 0.345 | 0.391 | 0.387 | 0.144 | 0.472 | 0.367 | 0.383 | 0.319 | 0.322
